Test results from patent US10793563B2, “GCN2 inhibitors and uses thereof” (Merck Patent GmbH, priority 2018, dated 2020).

Columns and labels:
[1] = target: intracellular GCN2 (phosphorylation of the GCN2 substrate eIF2α) (Homo sapiens (Human), UniProt Q9P2K8); experiment: GCN2 Cellular Inhibition Assay (AlphaScreen SureFire P-eIF2α Ser51, borrelidin-treated U2OS cells); type: cell-based; settings: 10 μM borrelidin, 1 h, phosphorylated eIF2α Ser51, read-out: GCN2 Biomarker (IC50)
Method: Compounds can be screened for their ability to inhibit intracellular GCN2 using an AlphaScreen assay (Perkin Elmer) to detect phosphorylation of the GCN2 substrate eIF2α in borrelidin-treated cells. U2OS cells are plated at 5,000 cells per well in 384-well white polystyrene plates (Corning 3570) in McCoy's 5A media (GIBCO 26600-023) supplemented with 10% foetal bovine serum (SAFC 12103C), Penicillin/Streptomycin solution diluted 1:100 (Sigma P0781), and 2 mM L-glutamine (Sigma G7513), and allowed to adhere overnight at 37° C. in 5% CO2. Compounds are then added to the cell media from a final concentration of 40 μM in 4-fold serial dilutions. Borrelidin (FluoroChem M01440) is immediately added to the wells to a final concentration of 10 μM and the cells are incubated for 1 h at 37° C. in 5% CO2. After 1 h of treatment with borrelidin, the media is removed, and the cells are lysed with lysis buffer (TGR BioSceinces TGRLB) at ambient temperature.
An AlphaScreen SureFire P-eIF2α (Ser51) assay kit (Perkin Elmer TGREIF2S) was used to measure levels of eIF2α phosphorylated on Serine 51. Anti-phosphorylated eIF2α Ser51 antibody-linked acceptor beads (TGR BioScience 6760617) are added to the cell homogenate (diluted 1:250 into a mixture of activation (TGR BioScience TGRAB) and reaction buffer (TGR BioScience TGREIF2S) prepared immediately before use). The plate is then incubated for 2 h at ambient temperature in the dark. Anti-eIF2α antibody-linked donor beads (TGR BioScience 6760617) were then added (diluted 1:100 in dilution buffer (TGR BioScience TGRDB) prepared immediately before use). The plate is then incubated overnight at ambient temperature in the dark.
Plates are analyzed on an Alpha Technology-compatible PHERAstar FS plate reader (BMG Labtech Version 1.14) to quantify phosphorylated eIF2α Ser51 levels. The percentage inhibition of phosphorylated eIF2α is calculated by comparison to control wells stimulated with borrelidin alone.

GCN2 kinase = GCN2 kinase (Homo sapiens (Human), UniProt Q9P2K8); experiment: GCN2 Enzyme Inhibition Assay (Transcreener ADP2 fluorescence polarization); type: biochemical; settings: 280 μM ATP, 200 μM (RS)7 peptide, 4 nM GCN2, 25° C.; for Ki: Ki(app)
Method in brief: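 At 25 °C, GCN2 kinase (typical final concentration 4 nM) and (RS)7 peptide in Tris-HCl pH 7.5 buffer with MgCl2, NaCl and DTT were preincubated with compound for 10 min, then ATP was added for a 1 h reaction. ADP was read by FP with antibody/Alexa633 tracer. Non-linear tight-binding analysis gave IC50 and apparent Ki.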

intracellular GCN2 (phosphorylation of the GCN2 substrate eIF2α), sequence (Q9P2K8 whole entry): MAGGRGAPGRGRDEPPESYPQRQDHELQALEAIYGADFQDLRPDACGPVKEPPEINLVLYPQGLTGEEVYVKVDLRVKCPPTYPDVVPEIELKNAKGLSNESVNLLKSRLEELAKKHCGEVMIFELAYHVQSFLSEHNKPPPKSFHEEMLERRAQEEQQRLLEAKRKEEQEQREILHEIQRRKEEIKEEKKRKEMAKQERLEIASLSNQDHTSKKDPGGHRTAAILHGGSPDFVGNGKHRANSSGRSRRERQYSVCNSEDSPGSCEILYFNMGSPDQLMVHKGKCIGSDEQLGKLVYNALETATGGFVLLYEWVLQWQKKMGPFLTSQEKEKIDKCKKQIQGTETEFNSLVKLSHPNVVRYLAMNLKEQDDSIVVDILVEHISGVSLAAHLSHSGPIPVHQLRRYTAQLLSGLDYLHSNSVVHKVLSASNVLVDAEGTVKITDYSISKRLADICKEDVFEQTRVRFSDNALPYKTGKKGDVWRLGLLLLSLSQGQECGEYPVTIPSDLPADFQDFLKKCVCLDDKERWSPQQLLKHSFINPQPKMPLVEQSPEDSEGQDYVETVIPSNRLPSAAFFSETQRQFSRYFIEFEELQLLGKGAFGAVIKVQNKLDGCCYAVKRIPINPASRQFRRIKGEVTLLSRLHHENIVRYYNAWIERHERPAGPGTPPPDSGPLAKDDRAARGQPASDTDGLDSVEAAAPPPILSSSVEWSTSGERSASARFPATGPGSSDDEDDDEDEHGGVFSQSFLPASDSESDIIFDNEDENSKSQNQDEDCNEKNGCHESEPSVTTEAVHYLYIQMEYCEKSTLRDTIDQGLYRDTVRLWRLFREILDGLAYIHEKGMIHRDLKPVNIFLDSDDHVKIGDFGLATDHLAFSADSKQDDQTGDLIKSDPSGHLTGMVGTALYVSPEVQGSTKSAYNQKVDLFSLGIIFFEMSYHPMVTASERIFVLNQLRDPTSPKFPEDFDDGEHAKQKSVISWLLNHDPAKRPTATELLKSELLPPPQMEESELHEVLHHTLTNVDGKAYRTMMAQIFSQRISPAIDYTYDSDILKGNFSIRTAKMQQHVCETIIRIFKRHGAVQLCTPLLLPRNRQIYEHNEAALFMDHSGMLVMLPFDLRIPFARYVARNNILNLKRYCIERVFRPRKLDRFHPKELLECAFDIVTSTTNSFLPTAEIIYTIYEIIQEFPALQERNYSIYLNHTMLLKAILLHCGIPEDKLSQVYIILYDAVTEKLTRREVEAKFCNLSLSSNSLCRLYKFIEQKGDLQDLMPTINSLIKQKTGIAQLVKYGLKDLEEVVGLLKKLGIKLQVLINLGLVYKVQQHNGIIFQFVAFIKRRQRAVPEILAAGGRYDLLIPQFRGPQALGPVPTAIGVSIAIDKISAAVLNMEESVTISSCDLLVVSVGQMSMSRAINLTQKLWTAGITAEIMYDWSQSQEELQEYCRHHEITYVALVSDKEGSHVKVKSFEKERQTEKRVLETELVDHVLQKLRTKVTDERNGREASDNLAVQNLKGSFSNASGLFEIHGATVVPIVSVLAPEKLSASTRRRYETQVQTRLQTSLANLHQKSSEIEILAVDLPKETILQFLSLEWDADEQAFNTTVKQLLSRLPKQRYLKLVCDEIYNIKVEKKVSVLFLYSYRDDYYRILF
GCN2 kinase, sequence (Q9P2K8 whole entry): as above

Row | SMILES | IC50 [1] [nM] | IC50 (GCN2 kinase) [nM] | Ki (GCN2 kinase) [nM]
1 | COCC1(CN2CCN(c3ccnc(-c4cnc5ccc(C(F)(F)F)cn45)n3)[C@H](C)[C@@H]2c2cn[nH]c2)CCC1 (stereo in doubt) [I-511, 4-[(2R,3 S)-4-{[1-(methoxymethyl)cyclobutyl]methyl}-2-methyl-3-(1H-pyrazol-4-yl)piperazin-1-yl]-2-[6-(trifluoromethyl)imidazo[1,2-a]pyridin-3-yl]pyrimidine] | < 500 | < 10 | 
2 | FC(F)(F)c1ccc2ncc(-c3ccnc(N4CCOC(c5cn[nH]c5)C4)n3)n2c1 (centres unmarked) [I-9, 2-(1H-Pyrazol-4-yl)-4-(4-(6-(trifluoromethyl)imidazo[1,2-a]pyridin-3-yl)pyrimidin-2-yl)morpholine] | < 500 |  | < 10
3 | CC(=O)N1CCN(c2cccc(-c3cnc4ccc(C(F)(F)F)cn34)n2)CC1 [I-11, 1-[4-[6-[6-(Trifluoromethyl)imidazo[1,2-a]pyridin-3-yl]-2-pyridyl]piperazin-1-yl]ethanone] | > 5000 |  | 10 to 100
4 | FC(F)(F)c1ccc2ncc(-c3cccc(N4CCOC(c5cn[nH]c5)C4)n3)n2c1 (centres unmarked) [I-12, 2-(1H-Pyrazol-4-yl)-4-[6-[6-(trifluoromethyl)imidazo[1,2-a]pyridin-3-yl]-2-pyridyl]morpholine] | < 500 |  | < 10
5 | CC(=O)N1CCN(c2ccnc(-c3cnc4ccc(C(F)F)cn34)n2)CC1 [I-14, 1-[4-[2-[6-(Difluoromethyl)imidazo[1,2-a]pyridin-3-yl]pyrimidin-4-yl]piperazin-1-yl]ethanone] | 500 to 5000 |  | 10 to 100
6 | FC(F)c1ccc2ncc(-c3nccc(N4CCOC(c5cn[nH]c5)C4)n3)n2c1 (centres unmarked) [I-15, 4-[2-[6-(Difluoromethyl)imidazo[1,2-a]pyridin-3-yl]pyrimidin-4-yl]-2-(1H-pyrazol-4-yl)morpholine] | < 500 |  | < 10
7 | CS(=O)(=O)NC[C@@H]1CN(c2nccc(-c3cnc4ccc(C(F)F)cn34)n2)CCO1 [I-17, N-[[(2S)-4-[4-[6-(Difluoromethyl)imidazo[1,2-a]pyridin-3-yl]pyrimidin-2-yl]morpholin-2-yl]methyl]methanesulfonamide] | < 500 |  | < 10
8 | FC(F)c1ccc2ncc(-c3ccnc(N4CCOC(c5cn[nH]c5)C4)n3)n2c1 (centres unmarked) [I-18, 4-[4-[6-(Difluoromethyl)imidazo[1,2-a]pyridin-3-yl]pyrimidin-2-yl]-2-(1H-pyrazol-4-yl)morpholine] | < 500 |  | < 10
9 | CS(=O)(=O)NC[C@@H]1CN(c2ccnc(-c3cnc4ccc(Cl)cn34)n2)CCO1 [I-19, N-[[(2S)-4-[2-(6-Chloroimidazo[1,2-a]pyridin-3-yl)pyrimidin-4-yl]morpholin-2-yl]methyl]methanesulfonamide] | 500 to 5000 |  | 10 to 100
10 | Clc1ccc2ncc(-c3nccc(N4CCOC(c5cn[nH]c5)C4)n3)n2c1 (centres unmarked) [I-20, 4-[2-(6-Chloroimidazo[1,2-a]pyridin-3-yl)pyrimidin-4-yl]-2-(1H-pyrazol-4-yl)morpholine] | < 500 |  | < 10
11 | Clc1ccc2ncc(-c3ncnc(N4CCOC(c5cn[nH]c5)C4)n3)n2c1 (centres unmarked) [I-22, 4-[4-(6-Chloroimidazo[1,2-a]pyridin-3-yl)-1,3,5-triazin-2-yl]-2-(1H-pyrazol-4-yl)morpholine] | < 500 |  | < 10
12 | Fc1cc2ncc(-c3nccc(N4CCOC(c5cn[nH]c5)C4)n3)n2cc1Cl (centres unmarked) [I-23, 4-[2-(6-Chloro-7-fluoro-imidazo[1,2-a]pyridin-3-yl)pyrimidin-4-yl]-2-(1H-pyrazol-4-yl)morpholine] | < 500 |  | < 10

The remaining lines, values ahead:

Row | IC50 [1] [nM] | IC50 (GCN2 kinase) [nM] | Ki (GCN2 kinase) [nM] | SMILES
13 | 500 to 5000 | 10 to 100 |  | C[C@H](NS(C)(=O)=O)[C@H]1CN(c2ccnc(-c3cnc4ccc(C(F)(F)F)cn34)n2)CCO1 (stereo in doubt) [I-405, N—((S)-1-((R)-4-(2-(6-(trifluoromethyl)imidazo[1,2-a]pyridin-3-yl)pyrimidin-4-yl)morpholin-2-yl)ethyl)methanesulfonamide]
14 | < 500 | 10 to 100 |  | C[C@H]1[C@@H](CNS(C)(=O)=O)N(C2CC2)[C@@H](C)CN1c1ccnc(-c2cnc3ccc(C(F)(F)F)cn23)n1 (stereo in doubt) [I-491, N-(((2R,3 S,6S)-1-cyclopropyl-3,6-dimethyl-4-(2-(6-(trifluoromethyl)imidazo[1,2-a]pyridin-3-yl)pyrimidin-4-yl)piperazin-2-yl)methyl)methanesulfonamide]
15 | < 500 | 10 to 100 |  | C[C@@H]1[C@@H](CNS(C)(=O)=O)N(C2CC2)[C@H](C)CN1c1ccnc(-c2cnc3ccc(C(F)(F)F)cn23)n1 (stereo in doubt) [I-493, N-(((2R,3R,6R)-1-cyclopropyl-3,6-dimethyl-4-(2-(6-(trifluoromethyl)imidazo[1,2-a]pyridin-3-yl)pyrimidin-4-yl)piperazin-2-yl)methyl)methanesulfonamide]
16 | 500 to 5000 | 100 to 1000 |  | C[C@@H]1[C@H](CNS(C)(=O)=O)N(C2CC2)[C@H](C)CN1c1ccnc(-c2cnc3ccc(C(F)(F)F)cn23)n1 (stereo in doubt) [I-494, N-(((2S,3R,6R)-1-cyclopropyl-3,6-dimethyl-4-(2-(6-(trifluoromethyl)imidazo[1,2-a]pyridin-3-yl)pyrimidin-4-yl)piperazin-2-yl)methyl)methanesulfonamide]
17 | < 500 | 10 to 100 |  | FC(F)(F)c1ccc2ncc(-c3nccc(N4CCN(C5CC5)C(c5cn[nH]c5)C4)n3)n2c1 (stereo in doubt) [I-503, (R)-3-(4-(4-cyclopropyl-3-(1H-pyrazol-4-yl)piperazin-1-yl)pyrimidin-2-yl)-6-(trifluoromethyl)imidazo[1,2-a]pyridine]
18 | 500 to 5000 |  | 10 to 100 | CS(=O)(=O)NC[C@@H]1CN(c2ccnc(-c3cnc4ccc(C(F)(F)F)cn34)n2)CCO1 [I-1, N-[[(2S)-4-[2-[6-(Trifluoromethyl)imidazo[1,2-a]pyridin-3-yl]pyrimidin-4-yl]morpholin-2-yl]methyl]methanesulfonamide]
19 | 500 to 5000 |  | 10 to 100 | CS(=N)(=O)C[C@H]1CCCN(c2ccnc(-c3cnc4ccc(C(F)(F)F)cn34)n2)C1 (some centres unmarked) [I-4, 3-(4-(3-((S-Methylsulfonimidoyl)methyl)piperidin-1-yl)pyrimidin-2-yl)-6-(trifluoromethyl)imidazo[1,2-a]pyridine]
20 | 500 to 5000 |  | 10 to 100 | O=C1NCC2CN(c3ccnc(-c4cnc5ccc(C(F)(F)F)cn45)n3)CCN12 (centres unmarked) [I-5, 7-(2-(6-(Trifluoromethyl)imidazo[1,2-a]pyridin-3-yl)pyrimidin-4-yl)hexahydroimidazo[1,5-a]pyrazin-3(2H)-one]
21 | 500 to 5000 |  | 10 to 100 | O=C1NCC2CN(c3ccnc(-c4cnc5ccc(C(F)(F)F)cn45)n3)CCN12 (centres unmarked) [I-6, 7-(2-(6-(trifluoromethyl)imidazo[1,2-a]pyridin-3-yl)pyrimidin-4-yl)hexahydroimidazo[1,5-a]pyrazin-3(2H)-one]
22 | 500 to 5000 |  | < 10 | CS(=O)(=O)NC[C@@H]1CN(c2ccnc(-c3cnc4ccc(C(F)F)cn34)n2)CCO1 [I-13, N-[[(2S)-4-[2-[6-(Difluoromethyl)imidazo[1,2-a]pyridin-3-yl]pyrimidin-4-yl]morpholin-2-yl]methyl]methanesulfonamide]
